Drawing on the METLIN SMRT retention time set (Domingo-Almenara et al. 2019), this text covers RP-LC retention time for 78 compounds.

SMILES strings stand for the structures.

The series in a line: gradient 5% acetonitrile 3 min, to 50% in 2 min, to 85% in 15 min, held 3 min, 100 µL/min. The conditions noted are these: column: Zorbax Extend-C18 2.1 x 50 mm; eluents: water / acetonitrile, 0.1% formic acid. An outline of the steps: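 The system's dead and dwell volumes were 40 μL and 900 μL, with a Zorbax Extend-C18 column (2.1 × 50 mm, 1.8 μm) run at 100 μL/min in water and acetonitrile containing 0.1% formic acid each. Pure standards were analyzed in mixtures of ~100 molecules by HPLC–quadrupole time-of-flight mass spectrometry in positive and negative ionization mode. Retention time was assigned from computationally picked, manually inspected adduct peaks.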
For the compound `COc1ccc(-n2nc3c(N4CCCC(C(=O)NCCC5=CCCCC5)C4)nnc(C)c3c2C)cc1` (stereo not drawn), the RP-LC retention time was determined as 814 s.

In turn, `COc1ccc(-c2ccc3nc(N4CCC(C(=O)NCCN(C)C)CC4)sc3n2)cc1` yielded an RP-LC retention time of 665 s.

The compound `CCCN1CCN(C(=O)c2ccc(-c3ccc(N4CCSCC4)nc3)cc2)CC1` came in with an RP-LC retention time of 560 s.

`CC1(C(=O)NCc2ccc3c(c2)OCO3)CCN(C(=O)c2ccc(C#N)cc2)CC1`: the RP-LC retention time turned out to be 754 s.

In the case of `COc1ccc(-c2noc(C3CC(=O)N(c4ccc(C)c(F)c4)C3)n2)cc1OC` (stereo not drawn), the RP-LC retention time was 984 s.

As for `Cc1ccc(-c2noc(CN3N=NC4C(=O)N(c5ccc(Br)cc5)C(=O)C43)n2)cc1C` (stereo not drawn), the RP-LC retention time was 1130 s.

For the compound `O=C(c1ccc(F)c(Cl)c1)N1CCN(c2cc(-c3cccnc3)[nH]n2)CC1`, the RP-LC retention time came out at 620 s.

For the compound `O=S(=O)(c1ccc(C(F)(F)F)cc1)N1CC(c2nc(-c3ccncc3)no2)C1`, the RP-LC retention time came to 888 s.

Turning to `Cc1noc(C2CCCCN2C(=O)c2ccoc2)n1` (stereo not drawn), the RP-LC retention time is 670 s.

Take `CCCNC(=O)C1CCCN(c2nc3ncn(CC(=O)Nc4cccc(C(C)C)c4)c(=O)c3s2)C1` (stereo not drawn): the RP-LC retention time came to 802 s.

Regarding `Cc1ccc(NC(=O)Cn2c(C(C)C)nc3c(c2=O)CCN(Cc2ccccc2)C3)cc1C`, the RP-LC retention time is 761 s.

As to `CCc1noc(NC(C)=O)c1-c1ccc(C)c(S(=O)(=O)Nc2ccccc2C)c1`, the RP-LC retention time is 836 s.

As for `COc1ccc(C(=O)NC2CCN(c3cc(-c4cccs4)[nH]n3)C2)cc1` (stereo not drawn), the RP-LC retention time came out at 703 s.

The compound `CC(C)CN1CCN(C(=O)c2cnc(-c3ccccc3)nc2-c2ccncc2)CC1` showed an RP-LC retention time of 646 s.

As to `COc1ccc(C(=O)Nc2nnc(SCc3nnc(-c4ccccc4C)o3)s2)cc1OC`, the RP-LC retention time was 898 s.

Consider `O=C(Cn1nc2ccc(C(=O)NCc3ccccc3)cn2c1=O)NCCC1=CCCCC1`, for which the RP-LC retention time stood at 811 s.

As for `Cc1nnc(-c2cccc(Cl)c2)nc1NC(C)C`, the RP-LC retention time was found to be 717 s.

`Cc1cc(C)c(CNC(=O)C2CCN(c3cncnc3N3CCOCC3)CC2)c(C)c1` showed an RP-LC retention time of 681 s.

For the compound `COc1ccccc1NC(=O)C1CCN(S(=O)(=O)c2c(C)[nH]c(C)c2C(=O)N2CCCC2)CC1`, the RP-LC retention time was 693 s.

Compound `Cc1ccc(N2C(=O)CN(S(=O)(=O)c3ccc(C)cc3)CC2(C)C(=O)NC2CCCC2)cc1` (stereo not drawn) displayed an RP-LC retention time of 983 s.

In turn, `COc1ccc(-n2cc(C(=O)OCCc3ccccn3)c3ccccc3c2=O)cc1` registered an RP-LC retention time of 714 s.

`O=C1COc2cc(S(=O)(=O)N3CCCC3C(=O)NCc3ccccc3)c(Cl)cc2N1` (stereo not drawn): the RP-LC retention time amounted to 718 s.

`Cc1nc(-c2cc(S(=O)(=O)Nc3ccc(Br)c(C)c3)c(C)s2)cs1` showed an RP-LC retention time of 1120 s.

`CCOc1ccccc1C(=O)Nc1cccn2c(C)nnc12` returned an RP-LC retention time of 790 s.

Consider `Cc1nn(C2CCS(=O)(=O)C2)c(C)c1N1CCN(S(=O)(=O)c2cccs2)CC1` (stereo not drawn), for which the RP-LC retention time stood at 752 s.

As to `O=C(Nc1c(-c2ccccc2)nc2ccc(Cl)cn12)c1ccco1`, the RP-LC retention time amounted to 674 s.

As for `CN(C)c1cc2c(cc1NC(=O)C1CC1)n(C)c(=O)c(=O)n2C`, the RP-LC retention time was 608 s.

In the case of `COc1ccc(C2Cn3cnc(-c4nc(-c5ccc6c(c5)OCO6)no4)c3CO2)cc1` (stereo not drawn), the RP-LC retention time turned out to be 1000 s.

Take `Cc1ccc(-n2nc(C)c3c(C)cc(OCC(=O)Nc4ccc5c(c4)OCO5)nc32)cc1`: the RP-LC retention time was 1020 s.

Regarding `CCN1CCN(CCCNC(=O)c2ccc(CS(=O)c3ccc(Cl)cc3)o2)CC1` (stereo not drawn), the RP-LC retention time stood at 569 s.

`CCn1cc(-c2nc(CC(=O)Nc3ccccc3OC)cs2)c2cccnc21` came in with an RP-LC retention time of 984 s.

`Cn1cc(-c2cc3n(n2)CCCN3C(=O)CCC(=O)NCCC2=CCCCC2)c2ccccc21` displayed an RP-LC retention time of 920 s.

As for `Cn1nccc1-c1cccc(-c2noc(C3CCN(S(=O)(=O)c4ccc(Cl)cc4)CC3)n2)c1`, the RP-LC retention time worked out at 1120 s.

Take `COc1ccc(C(=O)Nc2c(-c3ccc(F)cc3)nc3cc(C)ccn23)cc1OC`: the RP-LC retention time worked out at 647 s.

`Cn1nc(C2CCN(S(=O)(=O)Cc3cccc(Cl)c3)CC2)n(C2CCCC2)c1=O`: the RP-LC retention time worked out at 888 s.

Take `O=C(c1cccs1)N1CCN(c2[nH]ncc2-c2ccccc2)CC1`: the RP-LC retention time came to 808 s.

`O=S(=O)(Cc1ccccc1F)N1CCCC(c2nn[nH]n2)C1` (stereo not drawn) gave an RP-LC retention time of 706 s.

In turn, `Cc1ccc(-n2c(C)c(C)c3c(=O)n(CC(=O)NC4CCCC4)cnc32)cc1` came in with an RP-LC retention time of 834 s.

For `O=C(c1ccc2cc[nH]c2c1)N1CCN(c2cc(-c3cccs3)[nH]n2)CC1`, the RP-LC retention time is 747 s.

Regarding `CCC(C)Nc1cc(C)nc2c(C)c(-c3ccc(Cl)cc3)nn12` (stereo not drawn), the RP-LC retention time was 807 s.

`COc1ccc(-c2noc(Cn3ccnc3)n2)cc1`: the RP-LC retention time was determined as 601 s.

In the case of `CC1(C)C(=O)N(c2ccc(C#N)c(C(F)(F)F)c2)C(=O)N1CCCCO`, the RP-LC retention time amounted to 888 s.

For `Cc1cc(N2CCN(C)CC2)nc2ccc(NC(=O)Nc3ccc4c(c3)OCCO4)cc12`, the RP-LC retention time was determined as 580 s.

Regarding `COc1ccc(Br)cc1CNC(=O)c1ccc2c(c1)NC(=O)C1CCCCN21` (stereo not drawn), the RP-LC retention time is 884 s.

`CCc1ccc(NC2CC(=O)N(c3ccc(OC)cc3OC)C2=O)cc1` (stereo not drawn) yielded an RP-LC retention time of 887 s.

The compound `CN1c2ccc(Cl)cc2C(=O)NC12CCN(C(=O)NCCc1ccccc1)CC2` displayed an RP-LC retention time of 819 s.

In turn, `CC1(C(=O)NCc2ccc(Cl)cc2)CN(S(C)(=O)=O)CC(=O)N1CCc1ccccc1` (stereo not drawn) displayed an RP-LC retention time of 906 s.

Regarding `CCn1ccc2sc(C)c(C(=O)N3CCN(c4ccccc4)CC3)c2c1=O`, the RP-LC retention time was 773 s.

`CCOCCCNC(=O)C1CCCN(c2nnc(C)c3c(C)n(-c4ccccc4)nc23)C1` (stereo not drawn) yielded an RP-LC retention time of 655 s.

For the compound `CC1=C(c2ccccc2)S(=O)(=O)N=C1N1CCCN(C(=O)C2CCOC2)CC1` (stereo not drawn), the RP-LC retention time was found to be 675 s.

For the compound `Cc1nc(-c2cccs2)c(CC(=O)N2CCN(c3ccccn3)CC2)s1`, the RP-LC retention time was 607 s.

The compound `Cc1csc(-c2cc(S(=O)(=O)N3CCN(C4CCCCC4)CC3)c(C)s2)n1` gave an RP-LC retention time of 714 s.

Regarding `Cc1ccc(-c2noc(CSc3nc4cc5c(cc4c(=O)n3-c3ccc(F)cc3)OCO5)n2)cc1`, the RP-LC retention time was 1200 s.

As to `COc1ccc(-c2noc(C3CCCN3C(=O)c3ccccc3OC)n2)cc1OC` (stereo not drawn), the RP-LC retention time stood at 834 s.

For the compound `Cc1cc(N2CCCC2)nc(N2CCN(C(=O)C3CCCCC3)CC2)n1`, the RP-LC retention time is 693 s.

`COc1cc(-c2nc3ncccn3c2NC2CCCC2)cc(OC)c1OC` gave an RP-LC retention time of 705 s.

For `CSc1cccc(NC(=O)Cn2c(=O)n(-c3ccccc3)c(=O)c3c2cc(C)n3C)c1`, the RP-LC retention time stood at 861 s.

The compound `COCCNC(=O)C1CCCN(c2cc(=O)n(C)c(=O)n2C)C1` (stereo not drawn) returned an RP-LC retention time of 567 s.

The compound `CCOC(=O)c1ccc(NC2=NS(=O)(=O)C(c3ccccc3)=C2C)cc1` had an RP-LC retention time of 960 s.

`COc1ccc(N2CC(C(=O)N3CCC(C(=O)N4CCC(C(N)=O)CC4)CC3)CC2=O)cc1` (stereo not drawn) came in with an RP-LC retention time of 600 s.

`c1ccc(CCc2nc3nccc(-c4ccncc4)n3n2)cc1` had an RP-LC retention time of 713 s.

The compound `Cc1ccc(NC(=O)C2CCN(c3cncnc3N3CCOCC3)CC2)cc1C` had an RP-LC retention time of 670 s.

As for `Cc1cc(C)cc(NC(=O)N2CCC(n3cnc4c(Cl)cccc4c3=O)CC2)c1`, the RP-LC retention time came to 892 s.

`O=C(c1ccco1)N1CCN(c2ccc(-c3noc(C4CCC4)n3)cc2)CC1` showed an RP-LC retention time of 990 s.

Compound `Cc1ccc2c(c1)c1ncn(Cc3nc(C(C)C)no3)c(=O)c1n2CC(=O)N1CCCC1` had an RP-LC retention time of 818 s.

In the case of `CN(C)CCNC(=O)Cn1ncn2nc(-c3ccccc3)cc2c1=O`, the RP-LC retention time was 620 s.

With `Cc1cc(Cl)ccc1OCC(=O)Nc1ccc2c(c1)Sc1ncccc1C(=O)N2C`, the RP-LC retention time was determined as 911 s.

For `CCn1cnc(S(=O)(=O)N2CCCC(C(=O)Nc3ccc(C)cc3Cl)C2)c1` (stereo not drawn), the RP-LC retention time stood at 809 s.

Turning to `COc1ccccc1NC(=O)c1oc2ccccc2c1NC(=O)c1c(F)cccc1Cl`, the RP-LC retention time stood at 1180 s.

On to `Cc1ccc(-c2nnc(-c3nn(C)c4c3CN(S(=O)(=O)Cc3ccccc3Cl)CC4)o2)cc1`, for which the RP-LC retention time came to 1020 s.

On to `CN(C)CC1CN(C(=O)c2ccc(F)c(F)c2)CC12CCOCC2` (stereo not drawn), for which the RP-LC retention time was 578 s.

For `CC(=O)N1CCc2c(sc(NC(=O)C3(c4ccc(Cl)cc4)CCCC3)c2C#N)C1`, the RP-LC retention time worked out at 946 s.

For the compound `Cc1cc(N2CCN(C(=O)c3ccc(Cl)cc3)CC2)nc(N2CCOCC2)n1`, the RP-LC retention time worked out at 639 s.

`O=C(c1cnn2cc(Br)cnc12)N1CCCC1c1cccc(F)c1` (stereo not drawn): the RP-LC retention time was determined as 904 s.

Take `O=C(CCc1conc1-c1ccc(F)cc1)NC1CCCCC1`: the RP-LC retention time amounted to 927 s.

On to `COC(=O)c1cccc(C(=O)NC2(c3nc(C)no3)CCCCC2)c1`, for which the RP-LC retention time came out at 849 s.

`Cc1ccc(S(=O)(=O)N2CCCC2)cc1-c1nnc(-c2ccc(Cl)cc2)o1` gave an RP-LC retention time of 1130 s.

The compound `Nc1cc(=O)nc(SCC(=O)NC2CCCCC2)n1-c1cccc(C(F)(F)F)c1` showed an RP-LC retention time of 649 s.
